Laboratory results as given in patent US7803930B2, “Antisense modulation of apolipoprotein B-expression” (Isis Pharmaceuticals, Inc., priority 2002, dated 2010).

Tests used:
[1] = Evaluation of steatosis in high fat fed animals treated for 6 weeks, liver histology; assay type: in vivo, mouse; details: high fat fed C57BL/6 mice; 6 weeks of treatment
Excerpt: Tissue resected from liver is immediately immersed in Tissue Tek OCT embedding compound (Ted Pella, Inc., Redding, Calif.) and frozen in a 2-methyl-butane dry ice slurry. Tissue sections are cut at a thickness of 4-5 μm and then fixed in 5% neutral-buffered formalin. Tissue sections are stained with hematoxylin and eosin following standard histological procedures to visualize nuclei and cytoplasm, respectively, and oil red 0 according to the manufacturer's instructions (Newcomers Supply, Middleton, Wis.) to visualize lipids.
Alternatively, tissues are fixed in 10% neutral-buffered formalin, embedded in paraffin, sectioned at a thickness of 4-5 μm, deparaffinized and stained with hematoxylin and eosin, all according to standard histological procedures.
Liver tissue from ISIS 147764 (SEQ ID NO: 109) and control-treated animals described in Example 21 was evaluated for steatosis at study termination following 6 weeks of treatment. Tissue sections were stained with oil red 0 and hematoxylin to visualize lipids and nuclei, respectively. Tissue sections were also stained with hematoxylin and eosin to visualize nuclei and cytoplasm, respectively.

[2] = Lean mice, 6 weeks (Example 66): serum lipids and liver enzymes; assay type: in vivo, mouse; details: for HDL-cholesterol / LDL-cholesterol / Liver Enzymes ALT / Liver Enzymes AST / Total cholesterol / Triglycerides: serum
Description: The accumulation of lipids in liver tissue was also evaluated in lean mice. Male […] mice (Charles River Laboratories (Wilmington, Mass.) at 6 to 7 weeks of age were maintained on a standard rodent diet and were treated twice weekly with intraperitoneal injections of 25 or 50 mg/kg 147764 (SEQ ID NO: 109) or 147483 (SEQ ID NO: 79) for 6 weeks. Saline treated animals served as controls. Each treatment group was comprised of 4 animals. Animals were sacrificed after the 6 week treatment period, at which point liver tissue and serum were collected.
Total cholesterol, LDL-cholesterol, HDL-cholesterol and triglycerides in serum were measured by routine clinical analysis using an Olympus Clinical Analyzer (Olympus America Inc., Melville, N.Y.). The liver enzymes ALT and […] in serum were also measured using the Olympus Clinical Analyzer.

[3] = system: mouse apolipoprotein B protein; experiment: High fat fed C57BL/6 mice, 6 week timecourse: liver apolipoprotein B protein, immunoblot; assay type: in vivo; details: 5, 25, 50 mg/kg, six weeks
Excerpt: Liver protein samples collected at the end of the treatment period were subjected to immunoblot analysis using an antibody directed to mouse apolipoprotein B protein (Gladstone Institute, San Francisco, Calif.).

[4] = High fat fed C57BL/6 mice, 6 week timecourse: body, spleen, liver and fat pad weight; assay type: in vivo, mouse; details: six weeks, vs saline-treated controls
Description: Male C57BL/6 mice (n=8) receiving a high fat diet (60% kcal fat) were evaluated over the course of 6 weeks for the effects of ISIS 147764 on body, spleen, liver and fat pad weight. Control animals received saline treatment (50 mg/kg). […]
At study termination, animals were sacrificed 48 hours after the final injections and body, spleen, liver and fat pad weights were measured. Values are expressed as percent change in body weight or ogan weight compared to the saline-treated control animals. Negative values indicated a decrease in weight.

[5] = system: human apolipoprotein B protein; experiment: Apolipoprotein B protein in primary human hepatocytes, immunoblot; assay type: cell-based; details: 50, 150 and 300 nM, 24 hours, 48 hours
Description: Protein samples from 50, 150 and 300 nM doses after 24 hours and 150 and 300 nM doses after 48 hours were subjected to immunoblot analysis as described by other examples herein, using a human apolipoprotein B protein specific antibody purchased from US Biological (Swampscott, Mass.).

[6] = Long-term study in lean Cynomolgous monkeys (Example 64): toxicity (steatosis, APTT, histology, kidney); assay type: in vivo, Cynomolgous monkey
Description: Male and female Cynomologous monkeys are treated with 2, 4 or 12 mg/kg of ISIS 301012 intravenously or 2 or 20 mg/kg subcutaneously at a frequency of every two days for the first week, and every 4 days thereafter, for 1 and 3 month treatment periods. Saline-treated animals serve as controls. Each treatment group includes 2 to 3 animals of each sex.
At a one month interval and at the 3 month study termination, the animals are sacrificed and evaluated for target expression in liver, lipid levels in serum and indicators of toxicity. Liver samples are procured, RNA is isolated and apolipoprotein B mRNA expression is measured by real-time PCR as described in other examples herein. Serum lipids, including total cholesterol, LDL-cholesterol, HDL-cholesterol and triglycerides, are evaluated by routine clinical analysis using an Olympus Clinical Analyzer (Olympus America Inc., Melville, N.Y.). Ratios of LDL-cholesterol to HDL-cholesterol and total cholesterol to HDL-cholesterol are also calculated. Analyses of serum ALT and AST, inflammatory infiltrates in tissue and basophilic granules in tissue provide an assessment of toxicities related to the treatment. Hepatic steatosis, or accumulation of lipids in the liver, is assessed by routine histological analysis with oil red 0 stain and measurement of liver tissue triglycerides using a Triglyceride GPO Assay (Sigma-Aldrich, St. Louis, Mo.).
Hepatic steatosis, or accumulation of lipids in the liver, was not observed following 4 weeks of treatment with the doses indicated.

[7] = Long-term study in lean Cynomolgous monkeys (Example 64): intact oligonucleotide in liver by capillary gel electrophoresis; assay type: in vivo, Cynomolgous monkey; details: for antisense oligonucleotide concentration: liver tissue, one month
Description: The results from the one month interval of the long term treatment are shown in Table 50 and are normalized to saline-treated animals for mRNA and to untreated baseline values for lipid levels. Total cholesterol, LDL-cholesterol, HDL-cholesterol, LDL particle concentration and triglyceride levels in serum were measured by nuclear magnetic resonance spectroscopy by Liposcience (Raleigh, N.C.). Additionally, the concentration of intact oligonucleotide in liver was measured by capillary gel electrophoresis and is presented as micrograms of oligonucleotide per gram of liver tissue. Each result represents the average of data from 4 animals (2 males and 2 females).

GTCCCTGAAGATGTCAATGC (2'-MOE gapmer, further chemistry not given here) [ISIS 147764]
steatosis vs saline treated animals (histology) [1]: no difference in steatosis | serum lipids relative to saline-treated control animals ([2]; 25 or 50 mg/kg i.p. twice weekly): lowers serum lipids | HDL-cholesterol ([2]; 25 mg/kg i.p. twice weekly): 79 mg/dL | LDL-cholesterol ([2]; 25 mg/kg i.p. twice weekly): 29 mg/dL | Liver Enzymes ALT ([2]; 25 mg/kg i.p. twice weekly): 47 IU/L | Liver Enzymes AST ([2]; 25 mg/kg i.p. twice weekly): 81 IU/L | Total cholesterol ([2]; 25 mg/kg i.p. twice weekly): 114 mg/dL | Triglycerides ([2]; 25 mg/kg i.p. twice weekly): 80 mg/dL | HDL-cholesterol ([2]; 50 mg/kg i.p. twice weekly): 38 mg/dL | LDL-cholesterol ([2]; 50 mg/kg i.p. twice weekly): 18 mg/dL | Liver Enzymes ALT ([2]; 50 mg/kg i.p. twice weekly): 48 IU/L | Liver Enzymes AST ([2]; 50 mg/kg i.p. twice weekly): 101 IU/L | Total cholesterol ([2]; 50 mg/kg i.p. twice weekly): 57 mg/dL | Triglycerides ([2]; 50 mg/kg i.p. twice weekly): 30 mg/dL | apolipoprotein B protein expression in liver (immunoblot) [3]: decreases apolipoprotein B protein expression in liver in a dose-dependent manner | Percent Change Fat (fat pad weight) ([4]; 5 mg/kg i.p.): 10% | Percent Change Liver weight ([4]; 5 mg/kg i.p.): 18% | Percent Change Spleen weight ([4]; 5 mg/kg i.p.): 10% | Percent Change Total Body Wt. ([4]; 5 mg/kg i.p.): 5% | Percent Change Fat (fat pad weight) ([4]; 25 mg/kg i.p.): 6% | Percent Change Liver weight ([4]; 25 mg/kg i.p.): 70% | Percent Change Spleen weight ([4]; 25 mg/kg i.p.): 10% | Percent Change Total Body Wt. ([4]; 25 mg/kg i.p.): 5% | Percent Change Fat (fat pad weight) ([4]; 50 mg/kg i.p.): −47% | Percent Change Liver weight ([4]; 50 mg/kg i.p.): 80% | Percent Change Spleen weight ([4]; 50 mg/kg i.p.): 46% | Percent Change Total Body Wt. ([4]; 50 mg/kg i.p.): −4%

ISIS 301012: SEQ ID NO: 247, antisense oligonucleotide targeted to human apolipoprotein B (antisense GCCTCAGTCTGCTTCGCACC; chemistry not given here)
apolipoprotein B protein in human hepatocytes (immunoblot) [5]: reduced in a dose-dependent manner | functional changes in kidney [6]: No functional changes | Hepatic steatosis ([6]; 4 weeks of treatment): not observed | dose-related histological findings ([6]; 12 and 20 mg/kg): basophilic granules in the liver and kidney | transient increase in activated partial thromboplastin time (APTT) ([6]; 12 and 20 mg/kg, during the first 4 hours): 1.2-1.3 fold | antisense oligonucleotide concentration ([7]; intravenous 2 mg/kg): 92 µg/g | antisense oligonucleotide concentration ([7]; intravenous 4 mg/kg): 179 µg/g | antisense oligonucleotide concentration ([7]; intravenous 12 mg/kg): 550 µg/g | antisense oligonucleotide concentration ([7]; subcutaneous 20 mg/kg): 855 µg/g | accumulation of antisense oligonucleotide in the liver ([7]; one month interval): accumulates in the liver in a dose-dependent manner
